Assay results reported in patent US9833497B2, “Human originated EGF domain proteins and use of the same” (CHENGDU SOURCEBIO LIMITED-LIABILITY COMPANY, priority 2013, dated 2017).

Legend:
Format in all cases: cell-based
Pseudomonas aeruginosa = experiment: MIC against Gram-negative bacteria: Pseudomonas aeruginosa; conditions: 5×10^5 CFU/mL
Method in brief: (§1)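 Growth inhibition by human EGF domain proteins was scored in LB liquid culture seeded at 5×10^5 CFU/mL. Protein was applied as a two-fold dilution series in triplicate, with shaking incubation at 37° C; MIC is the lowest concentration giving no growth.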

Proteus mirabilis = experiment: MIC against Gram-negative bacteria: Proteus mirabilis; conditions: 5×10^5 CFU/mL
Method in brief: as §1

E. coli DH5α = experiment: Antibacterial activity: MIC and growth curve against E. coli DH5α in 96-well plate; conditions: minimal inhibitory concentration against E. coli DH5α; 96-well plate, 5×10^5 CFU/mL, 37° C., judged after 8 h
Method in brief: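 Log-phase bacteria (OD600 ~0.5) resuspended in LB at 5×10^5 CFU/mL, exposed to recombinant protein at 50, 25, 12.5 μg/mL final in triplicate, 37 °C shaking at 175 rpm. OD600 read every 30 min; MIC is lowest concentration showing no growth.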

Serratia marcescens = experiment: MIC against Gram-negative bacteria: Serratia marcescens; conditions: 5×10^5 CFU/mL
Method in brief: as §1

E. coli BL21 = experiment: MIC against Gram-negative bacteria: E. coli BL21; conditions: 5×10^5 CFU/mL
Method in brief: as §1

Citrobacter diversus = experiment: MIC against Gram-negative bacteria: Citrobacter diversus; conditions: 5×10^5 CFU/mL
Method in brief: as §1

Aeromonas hydrophila = experiment: MIC against Gram-negative bacteria: Aeromonas hydrophila; conditions: 5×10^5 CFU/mL
Method in brief: as §1

Klebsiella pneumonia = experiment: MIC against Gram-negative bacteria: Klebsiella pneumonia; conditions: 5×10^5 CFU/mL
Method in brief: as §1

Moraxella catarrhalis = experiment: MIC against Gram-negative bacteria: Moraxella catarrhalis; conditions: 5×10^5 CFU/mL
Method in brief: as §1

Enterobacter cloacae = experiment: MIC against Gram-negative bacteria: Enterobacter cloacae; conditions: 5×10^5 CFU/mL
Method in brief: as §1

Proteus vulgaris = experiment: MIC against Gram-negative bacteria: Proteus vulgaris; conditions: 5×10^5 CFU/mL
Method in brief: as §1

[1] = Pseudomonas aeruginosa, 96-well plate, 37° C., 10 h
[2] = Proteus mirabilis, 96-well plate, 37° C., 10 h
[3] = Serratia marcescens, 96-well plate, 37° C., 10 h
[4] = Citrobacter diversus, 96-well plate, 37° C., 10 h
[5] = Aeromonas hydrophila, 96-well plate, 37° C., 10 h
[6] = Klebsiella pneumonia, 96-well plate, 37° C., 10 h
[7] = Moraxella catarrhalis, 96-well plate, 37° C., 10 h
[8] = Enterobacter cloacae, 96-well plate, 37° C., 10 h
[9] = Proteus vulgaris, 96-well plate, 37° C., 10 h
[10] = Pseudomonas aeruginosa, 10 h cultivation at 37° C.
[11] = Proteus mirabilis, 10 h cultivation at 37° C.
[12] = Serratia marcescens, 10 h cultivation at 37° C.
[13] = Citrobacter diversus, 10 h cultivation at 37° C.
[14] = Aeromonas hydrophila, 10 h cultivation at 37° C.
[15] = Klebsiella pneumonia, 10 h cultivation at 37° C.
[16] = Moraxella catarrhalis, 10 h cultivation at 37° C.
[17] = Enterobacter cloacae, 10 h cultivation at 37° C.
[18] = Proteus vulgaris, 10 h cultivation at 37° C.
[19] = 10 h cultivation at 37° C., two-fold serial dilution

PRT115 (SRNPCSSSPCRGGATCVLGPHGKNYTCRCPQGYQLDSSQLDCV; listed as Homo sapiens)
MIC (μg/mL) P. aeruginosa (Pseudomonas aeruginosa; [1]): 12.5 µg/mL
MIC (μg/mL) P. mirabilis (Proteus mirabilis; [2]): 12.5 µg/mL
MIC (E. coli DH5α): 12.5 µg/mL
MIC (μg/mL) S. marcescens (Serratia marcescens; [3]): 12.5 µg/mL
MIC (μg/mL) E. coli BL21 (E. coli BL21; 96-well plate, 37° C., 10 h): 50 µg/mL
MIC (μg/mL) C. diversus (Citrobacter diversus; [4]): 25 µg/mL
MIC (μg/mL) A. hydrophila (Aeromonas hydrophila; [5]): 12.5 µg/mL
MIC (μg/mL) K. pneumonia (Klebsiella pneumonia; [6]): 50 µg/mL
MIC (μg/mL) M. catarrhalis (Moraxella catarrhalis; [7]): 50 µg/mL
MIC (μg/mL) E. cloacae (Enterobacter cloacae; [8]): 25 µg/mL
MIC (μg/mL) P. vulgaris (Proteus vulgaris; [9]): 12.5 µg/mL

PRT1447 (GCGAGRWGPGCTKECPGCLHGGVCHDHDGECVCPPGFTGTRCE; listed as Homo sapiens)
MIC against P. aeruginosa (Pseudomonas aeruginosa; [10]): 12.5 µg/mL
MIC against P. mirabilis (Proteus mirabilis; [11]): 25 µg/mL
MIC (E. coli DH5α): 100 µg/mL
MIC against S. marcescens (Serratia marcescens; [12]): 25 µg/mL
MIC against E. coli BL21 (E. coli BL21; 10 h cultivation at 37° C.): 25 µg/mL
MIC against C. diversus (Citrobacter diversus; [13]): 12.5 µg/mL
MIC against A. hydrophila (Aeromonas hydrophila; [14]): 50 µg/mL
MIC against K. pneumonia (Klebsiella pneumonia; [15]): 12.5 µg/mL
MIC against M. catarrhalis (Moraxella catarrhalis; [16]): 50 µg/mL
MIC against E. cloacae (Enterobacter cloacae; [17]): 12.5 µg/mL
MIC against P. vulgaris (Proteus vulgaris; [18]): 12.5 µg/mL

PRT1357 (GQHSCPSDCNNLGQCVSGRCICNEGYSGEDCS; listed as Homo sapiens)
MIC against P. aeruginosa (Pseudomonas aeruginosa; [10]): 25 µg/mL
MIC against P. mirabilis (Proteus mirabilis; [11]): 12.5 µg/mL
MIC (E. coli DH5α): 50 µg/mL
MIC against S. marcescens (Serratia marcescens; [12]): 12.5 µg/mL
MIC against E. coli BL21 (E. coli BL21; 10 h cultivation at 37° C.): 12.5 µg/mL
MIC against C. diversus (Citrobacter diversus; [13]): 50 µg/mL
MIC against A. hydrophila (Aeromonas hydrophila; [14]): 100 µg/mL
MIC against K. pneumonia (Klebsiella pneumonia; [15]): 50 µg/mL
MIC against M. catarrhalis (Moraxella catarrhalis; [16]): 12.5 µg/mL
MIC against E. cloacae (Enterobacter cloacae; [17]): 25 µg/mL
MIC against P. vulgaris (Proteus vulgaris; [18]): 50 µg/mL

PRT641 (QAEECGILNGCENGRCVRVQEGYTCDCFDGYHLDTAK; listed as Homo sapiens)
MIC P. aeruginosa (Pseudomonas aeruginosa; 96-well plate, 37° C., 10 h): 12.5 µg/mL
MIC P. mirabilis (Proteus mirabilis; 96-well plate, 37° C., 10 h): 50 µg/mL
MIC (E. coli DH5α): 50 µg/mL
MIC S. marcescens (Serratia marcescens; 96-well plate, 37° C., 10 h): 50 µg/mL
MIC E. coli BL21 (E. coli BL21; 96-well plate, 37° C., 10 h): 25 µg/mL
MIC C. diversus (Citrobacter diversus; 96-well plate, 37° C., 10 h): 12.5 µg/mL
MIC A. hydrophila (Aeromonas hydrophila; 96-well plate, 37° C., 10 h): 25 µg/mL
MIC K. pneumonia (Klebsiella pneumonia; 96-well plate, 37° C., 10 h): 25 µg/mL
MIC M. catarrhalis (Moraxella catarrhalis; 96-well plate, 37° C., 10 h): 25 µg/mL
MIC E. cloacae (Enterobacter cloacae; 96-well plate, 37° C., 10 h): 50 µg/mL
MIC P. vulgaris (Proteus vulgaris; 96-well plate, 37° C., 10 h): 12.5 µg/mL

PRT1418 (IAHYLDRVVKEGCPGLCNGNGRCTLDLNGWHCVCQLGWRGAGCD; listed as Homo sapiens)
MIC against P. aeruginosa (Pseudomonas aeruginosa; [10]): 25 µg/mL
MIC against P. mirabilis (Proteus mirabilis; [11]): 12.5 µg/mL
MIC (E. coli DH5α): 25 µg/mL
MIC against S. marcescens (Serratia marcescens; [12]): 25 µg/mL
MIC against E. coli BL21 (E. coli BL21; 10 h cultivation at 37° C.): 12.5 µg/mL
MIC against C. diversus (Citrobacter diversus; [13]): 12.5 µg/mL
MIC against A. hydrophila (Aeromonas hydrophila; [14]): 25 µg/mL
MIC against K. pneumonia (Klebsiella pneumonia; [15]): 50 µg/mL
MIC against M. catarrhalis (Moraxella catarrhalis; [16]): 50 µg/mL
MIC against E. cloacae (Enterobacter cloacae; [17]): 25 µg/mL
MIC against P. vulgaris (Proteus vulgaris; [18]): 50 µg/mL

PRT1108 (DLNECNSNPCQSNGECVELSSEKQYGRITGLPSSFSYHEASGYVCICQPGFTGIHCE; listed as Homo sapiens)
MIC P. aeruginosa (Pseudomonas aeruginosa; [19]): 12.5 µg/mL
MIC P. mirabilis (Proteus mirabilis; [19]): 12.5 µg/mL
MIC (E. coli DH5α): 50 µg/mL
MIC S. marcescens (Serratia marcescens; [19]): 12.5 µg/mL
MIC E. coli BL21 (E. coli BL21; [19]): 12.5 µg/mL
MIC C. diversus (Citrobacter diversus; [19]): 12.5 µg/mL
MIC A. hydrophila (Aeromonas hydrophila; [19]): 25 µg/mL
MIC K. pneumonia (Klebsiella pneumonia; [19]): 12.5 µg/mL
MIC M. catarrhalis (Moraxella catarrhalis; [19]): 25 µg/mL
MIC E. cloacae (Enterobacter cloacae; [19]): 25 µg/mL
MIC P. vulgaris (Proteus vulgaris; [19]): 25 µg/mL

PRT603 (CHCHPQGSKDTVCDQVTGQCPCHGEVSGRRCDRCLAGYFGFPSCHP; listed as Homo sapiens)
MIC P. aeruginosa (Pseudomonas aeruginosa; 96-well plate, 37° C., 10 h): 25 µg/mL
MIC P. mirabilis (Proteus mirabilis; 96-well plate, 37° C., 10 h): 12.5 µg/mL
MIC (E. coli DH5α): 25 µg/mL
MIC S. marcescens (Serratia marcescens; 96-well plate, 37° C., 10 h): 12.5 µg/mL
MIC E. coli BL21 (E. coli BL21; 96-well plate, 37° C., 10 h): 50 µg/mL
MIC C. diversus (Citrobacter diversus; 96-well plate, 37° C., 10 h): 12.5 µg/mL
MIC A. hydrophila (Aeromonas hydrophila; 96-well plate, 37° C., 10 h): 50 µg/mL
MIC K. pneumonia (Klebsiella pneumonia; 96-well plate, 37° C., 10 h): 12.5 µg/mL
MIC M. catarrhalis (Moraxella catarrhalis; 96-well plate, 37° C., 10 h): 50 µg/mL
MIC E. cloacae (Enterobacter cloacae; 96-well plate, 37° C., 10 h): 25 µg/mL
MIC P. vulgaris (Proteus vulgaris; 96-well plate, 37° C., 10 h): 50 µg/mL

PRT1310 (EINSCLIHHGGCHIHAECIPTGPQQVSCSCREGYSGDGIRTCE; listed as Homo sapiens)
MIC against P. aeruginosa (Pseudomonas aeruginosa; [1]): 12.5 µg/mL
MIC against P. mirabilis (Proteus mirabilis; [2]): 25 µg/mL
MIC (E. coli DH5α): 12.5 µg/mL
MIC against S. marcescens (Serratia marcescens; [3]): 25 µg/mL
MIC against E. coli BL21 (E. coli BL21; 96-well plate, 37° C., 10 h): 50 µg/mL
MIC against C. diversus (Citrobacter diversus; [4]): 25 µg/mL
MIC against A. hydrophila (Aeromonas hydrophila; [5]): 12.5 µg/mL
MIC against K. pneumonia (Klebsiella pneumonia; [6]): 25 µg/mL
MIC against M. catarrhalis (Moraxella catarrhalis; [7]): 50 µg/mL
MIC against E. cloacae (Enterobacter cloacae; [8]): 50 µg/mL
MIC against P. vulgaris (Proteus vulgaris; [9]): 12.5 µg/mL

PRT66 (DDNICLREPCENYMKCVSVLRFDSSAPFLSSTTVLFRPIHPINGLRCRCPPGFTGDYCE; listed as Homo sapiens)
MIC (μg/mL) P. aeruginosa (Pseudomonas aeruginosa; [1]): 12.5 µg/mL
MIC (μg/mL) P. mirabilis (Proteus mirabilis; [2]): 25 µg/mL
MIC (E. coli DH5α): 12.5 µg/mL
MIC (μg/mL) S. marcescens (Serratia marcescens; [3]): 25 µg/mL
MIC (μg/mL) E. coli BL21 (E. coli BL21; 96-well plate, 37° C., 10 h): 12.5 µg/mL
MIC (μg/mL) C. diversus (Citrobacter diversus; [4]): 25 µg/mL
MIC (μg/mL) A. hydrophila (Aeromonas hydrophila; [5]): 12.5 µg/mL
MIC (μg/mL) K. pneumonia (Klebsiella pneumonia; [6]): 12.5 µg/mL
MIC (μg/mL) M. catarrhalis (Moraxella catarrhalis; [7]): 12.5 µg/mL
MIC (μg/mL) E. cloacae (Enterobacter cloacae; [8]): 12.5 µg/mL
MIC (μg/mL) P. vulgaris (Proteus vulgaris; [9]): 12.5 µg/mL

PRT158 (PGESHANDLECSGKGKCTTKPSEATFSCTCEEQYVGTFCE; listed as Homo sapiens)
MIC (μg/mL) P. aeruginosa (Pseudomonas aeruginosa; P. aeruginosa, 10 h cultivation at 37° C.): 50 µg/mL
MIC (μg/mL) P. mirabilis (Proteus mirabilis; P. mirabilis, 10 h cultivation at 37° C.): 50 µg/mL
MIC (E. coli DH5α): 12.5 µg/mL
MIC (μg/mL) S. marcescens (Serratia marcescens; S. marcescens, 10 h cultivation at 37° C.): 12.5 µg/mL
MIC (μg/mL) E. coli BL21 (E. coli BL21; 10 h cultivation at 37° C.): 12.5 µg/mL
MIC (μg/mL) C. diversus (Citrobacter diversus; C. diversus, 10 h cultivation at 37° C.): 12.5 µg/mL
MIC (μg/mL) A. hydrophila (Aeromonas hydrophila; A. hydrophila, 10 h cultivation at 37° C.): 25 µg/mL
MIC (μg/mL) K. pneumonia (Klebsiella pneumonia; K. pneumonia, 10 h cultivation at 37° C.): 12.5 µg/mL
MIC (μg/mL) M. catarrhalis (Moraxella catarrhalis; M. catarrhalis, 10 h cultivation at 37° C.): 25 µg/mL
MIC (μg/mL) E. cloacae (Enterobacter cloacae; E. cloacae, 10 h cultivation at 37° C.): 50 µg/mL
MIC (μg/mL) P. vulgaris (Proteus vulgaris; P. vulgaris, 10 h cultivation at 37° C.): 25 µg/mL
